Measurements as given in US6864363B2 (priority 2000, dated 2005).
Numbered stars: 1 amine (or outer) side, 2 acyl side, 3 side chain; on linkers, the order of the positions; unused ones are H or OH. Peptide text beside a SMILES is read from it. * marks the point of attachment. pNA = O=[N+]([O-])c1ccc(N*)cc1; Suc = O=C(CCC(=O)[*:2])[*:1]; Cbz = O=C(OCc1ccccc1)*

Experiments:
P. gingivalis DPP-7 [1] = type: biochemical, Porphyromonas gingivalis
P. gingivalis DPP-7 [2] = assay: Kinetic analysis of p-nitroanilide substrate cleavage by DPP-7; type: biochemical, Porphyromonas gingivalis; settings: for hydrolysis of chromogenic substrate by DPP-7: p-nitroanilide substrates; for Km / Vmax: 0.2 M HEPES, pH 7.8, 37° C.
Description: Kinetic Analysis—Routinely, the dipeptidylpeptidase amidolytic activity was measured with H-Ala-Phe-pNA (1 mM) in 0.2 M HEPES, pH 7.8 at 37° C. The reaction was followed for specific time intervals in a thermostated ELISA reader (SpectraMax, Applied Biosystem) and the release of p-nitroaniline was monitored at 405 nm. Other p-nitroanilide substrates were used in the same manner. For inhibition studies, the enzyme was first preincubated with an inhibitor for 15 minutes at 37° C., substrate added, and residual activity recorded. The initial steady-state velocity (v0) was determined by continuous assay for the range of substrate concentrations (100 nM to 1 mM). Km and Vmax were determined by hyperbolic regression of the kinetic data using the software package Hyper Version 1.02 obtained from Dr. J. S. Easterby (University of Liverpool, UK).
Substrate Specificity—Among several chromogenic substrates tested, only those with an aliphatic or an aromatic side chain residues in the second, penultimate position were rapidly hydrolyzed by DPP-7 (Table 2).

Compound | hydrolysis of chromogenic substrate by DPP-7 (P. gingivalis DPP-7 [2]) | also measured
NC(N)=NCCC[C@H](N)C(=O)N[C@@H](Cc1ccccc1)C(=O)O [Arg-Phe] | – | % of residual activity (P. gingivalis DPP-7 [1]): 69%
C[C@H](N)C(=O)NCC(=O)N[C@@H](CCCNC(=N)N)C(=O)Nc1ccc([N+](=O)[O-])cc1 [H-Ala-Gly-Arg-pNA] (H-Ala-Gly-Arg-pNA) | none of these was hydrolysed | –
CC(N)C(=O)NC(C)C(=O)Nc1ccc([N+](=O)[O-])cc1.Cl (stereo not drawn) [H-Ala-Ala-pNA] (H-Ala-Ala-pNA; configuration not given here) | – | Km (P. gingivalis DPP-7 [2]): 313 µM; Vmax (P. gingivalis DPP-7 [2]): 129.65
CC(C)[C@H](NC(=O)[C@H](C)NC(=O)[C@H](C)NC(=O)CCC(=O)O)C(=O)N[C@@H](C)C(=O)Nc1ccc([N+](=O)[O-])cc1 [N-suc-Ala-Ala-Val-Ala-pNA] (Suc-AAVA-pNA) | none of these was hydrolysed | –
NCC(=O)N[C@@H](CCCN=C(N)N)C(=O)Nc1ccc([N+](=O)[O-])cc1 [H-Gly-Arg-pNA] (H-Gly-Arg-pNA) | none of these was hydrolysed | –
NC(N)=NCCC[C@H](N)C(=O)NCC(=O)O [Arg-Gly] (H-Arg-Gly-OH) | – | % of residual activity (P. gingivalis DPP-7 [1]): 84%
C[C@H](N)C(=O)N1CCC[C@H]1C(=O)Nc1ccc([N+](=O)[O-])cc1 [H-Ala-Pro-pNA] (H-Ala-Pro-pNA) | none of these was hydrolysed | –
NCC(=O)Nc1ccc([N+](=O)[O-])cc1 [H-Gly-pNA] | none of these was hydrolysed | –
CC(C)C[C@H](NC(=O)OCc1ccccc1)C(=O)N[C@@H](CC(C)C)C(=O)N[C@@H](CCC(=O)O)C(=O)Nc1ccc([N+](=O)[O-])cc1 [Z-Leu-Leu-Glu-pNA] (Cbz-Leu-Leu-Glu-pNA) | none of these was hydrolysed | –
Aprotinin | – | % of residual activity (P. gingivalis DPP-7 [1]): 128%
NCCCC[C@H](NC(=O)OCc1ccccc1)C(=O)Nc1ccc([N+](=O)[O-])cc1 [Z-Lys-pNA] | none of these was hydrolysed | –
C[C@H](N)C(=O)NCC(=O)O [Ala-Gly] (H-Ala-Gly-OH) | – | % of residual activity (P. gingivalis DPP-7 [1]): 96%
N-met-Ala-Pro-Val-pNA | none of these was hydrolysed | –
NCCCC[C@H](NC(=O)CN)C(=O)Nc1ccc([N+](=O)[O-])cc1 [H-Gly-Lys-pNA] (H-Gly-Lys-pNA) | none of these was hydrolysed | –
NCC(=O)N[C@@H](CCC(=O)O)C(=O)Nc1ccc([N+](=O)[O-])cc1 [H-Gly-Glu-pNA] (H-Gly-Glu-pNA) | none of these was hydrolysed | –
C[C@H](NC(=O)CCC(=O)O)C(=O)N[C@@H](C)C(=O)Nc1ccc([N+](=O)[O-])cc1 [N-suc-Ala-Ala-pNA] (Suc-Ala-Ala-pNA) | none of these was hydrolysed | –
C[C@H](NC(=O)OCc1ccccc1)C(=O)N[C@@H](C)C(=O)Nc1ccc([N+](=O)[O-])cc1 [Z-Ala-Ala-pNA] (Cbz-Ala-Ala-pNA) | none of these was hydrolysed | –
C[C@H](N)C(=O)Nc1ccc([N+](=O)[O-])cc1 [H-Ala-pNA] | none of these was hydrolysed | –
CC(C)[C@H](NC(=O)[C@H](Cc1ccccc1)NC(=O)OCc1ccccc1)C(=O)N[C@@H](CCCNC(=N)N)C(=O)Nc1ccc([N+](=O)[O-])cc1 [Z-Phe-Val-Arg-pNA] (Cbz-Phe-Val-Arg-pNA) | none of these was hydrolysed | –

Compound | hydrolysis of chromogenic substrate by DPP-7 (P. gingivalis DPP-7 [2]) | also measured
C[C@H](N)C(=O)N[C@@H](Cc1ccccc1)C(=O)Nc1ccc([N+](=O)[O-])cc1 [H-Ala-Phe-pNA] | – | Km (P. gingivalis DPP-7 [2]): 441 µM; Vmax (P. gingivalis DPP-7 [2]): 170.06
NCC(=O)NC(Cc1ccccc1)C(=O)Nc1ccc([N+](=O)[O-])cc1 (stereo not drawn) [H-Gly-Phe-pNA] | – | Km (P. gingivalis DPP-7 [2]): 256 µM; Vmax (P. gingivalis DPP-7 [2]): 54.54
CC(C)C[C@H](N)C(=O)N[C@H](C(=O)N[C@@H](CCCNC(=N)N)C(=O)Nc1ccc([N+](=O)[O-])cc1)[C@@H](C)O [H-Leu-Thr-Arg-pNA] (H-Leu-Thr-Arg-pNA) | none of these was hydrolysed | –
CC(C)C[C@H](NC(=O)[C@@H]1CCCN1C(=O)[C@H](C)NC(=O)[C@H](C)NC(=O)CCC(=O)O)C(=O)Nc1ccc([N+](=O)[O-])cc1 [N-suc-Ala-Ala-Pro-Leu-pNA] (Suc-AAPL-pNA) | none of these was hydrolysed | –
N=C(N)NCCC[C@H](NC(=O)OCc1ccccc1)C(=O)Nc1ccc([N+](=O)[O-])cc1 [Z-Arg-pNA] | none of these was hydrolysed | –
CC[C@H](C)[C@H](N)C(=O)Nc1ccc([N+](=O)[O-])cc1 [H-Ile-pNA] | none of these was hydrolysed | –
NCCCC[C@H](NC(=O)[C@H](Cc1ccc(O)cc1)NC(=O)OCc1ccccc1)C(=O)N[C@@H](CCCN=C(N)N)C(=O)Nc1ccc([N+](=O)[O-])cc1 [Z-Tyr-Lys-Arg-pNA] (Cbz-Tyr-Lys-Arg-pNA) | none of these was hydrolysed | –
C[C@H](N)C(=O)NCC(=O)Nc1ccc([N+](=O)[O-])cc1 [H-Ala-Gly-pNA] (H-Ala-Gly-pNA) | none of these was hydrolysed | –
NC(N)=NCCCC(NC(=O)c1ccccc1)C(=O)Nc1ccc([N+](=O)[O-])cc1 (racemic) [Nα-benzoyl-DL-arginine-pNA] | none of these was hydrolysed | –
N=C(N)NCCC[C@H](NC(=O)[C@H](CCCCN)NC(=O)OCc1ccccc1)C(=O)Nc1ccc([N+](=O)[O-])cc1 [Z-Lys-Arg-pNA] (Cbz-Lys-Arg-pNA) | none of these was hydrolysed | –
NCC(=O)NCC(=O)Nc1ccc([N+](=O)[O-])cc1 [H-Gly-Gly-pNA] (H-Gly-Gly-pNA) | none of these was hydrolysed | –
N[C@@H](Cc1ccccc1)C(=O)Nc1ccc([N+](=O)[O-])cc1 [H-Phe-pNA] | none of these was hydrolysed | –
O=C(O)CC[C@H](NC(=O)OCc1ccccc1)C(=O)N[C@@H](CCC(=O)O)C(=O)Nc1ccc([N+](=O)[O-])cc1 [Z-Glu-Glu-pNA] (Cbz-Glu-Glu-pNA) | none of these was hydrolysed | –
NC(N)=NCCC[C@H](NC(=O)[C@H](Cc1ccccc1)NC(=O)OCc1ccccc1)C(=O)Nc1ccc([N+](=O)[O-])cc1 [Z-Phe-Arg-pNA] (Cbz-Phe-Arg-pNA) | none of these was hydrolysed | –
C[C@H](N)C(=O)N[C@@H](Cc1ccccc1)C(=O)N1CCC[C@H]1C(=O)Nc1ccc([N+](=O)[O-])cc1 [H-Ala-Phe-Pro-pNA] (H-Ala-Phe-Pro-pNA) | none of these was hydrolysed | –
C[C@H](N)C(=O)N[C@@H](C)C(=O)N[C@@H](Cc1ccccc1)C(=O)Nc1ccc([N+](=O)[O-])cc1 [H-Ala-Ala-Phe-pNA] (H-Ala-Ala-Phe-pNA) | none of these was hydrolysed | –
C[C@H](NC(=O)CCC(=O)O)C(=O)N[C@@H](C)C(=O)N1CCC[C@H]1C(=O)N[C@@H](CCC(=O)O)C(=O)Nc1ccc([N+](=O)[O-])cc1 [N-suc-Ala-Ala-Pro-Glu-pNA] (Suc-AAPE-pNA) | none of these was hydrolysed | –
Br.Br.NCCCC[C@H](N)C(=O)Nc1ccc([N+](=O)[O-])cc1 [H-Lys-pNA] | none of these was hydrolysed | –
CC(C)C[C@H](N)C(=O)Nc1ccc([N+](=O)[O-])cc1 [H-Leu-pNA] | none of these was hydrolysed | –
